Source: ChEMBL document CHEMBL1127063, “NMR and computational evidence that high-affinity bradykinin receptor antagonists adopt C-terminal beta-turns” (J Med Chem, 1993)

How the values were obtained:
B2 bradykinin receptor = biological target: T1, B2 bradykinin receptor (Cavia porcellus, UniProt O70526); assay: In vitro binding affinity against bradykinin receptor B2 from guinea pig ileum.; type: tissue-based
T1 sequence (O70526 whole entry): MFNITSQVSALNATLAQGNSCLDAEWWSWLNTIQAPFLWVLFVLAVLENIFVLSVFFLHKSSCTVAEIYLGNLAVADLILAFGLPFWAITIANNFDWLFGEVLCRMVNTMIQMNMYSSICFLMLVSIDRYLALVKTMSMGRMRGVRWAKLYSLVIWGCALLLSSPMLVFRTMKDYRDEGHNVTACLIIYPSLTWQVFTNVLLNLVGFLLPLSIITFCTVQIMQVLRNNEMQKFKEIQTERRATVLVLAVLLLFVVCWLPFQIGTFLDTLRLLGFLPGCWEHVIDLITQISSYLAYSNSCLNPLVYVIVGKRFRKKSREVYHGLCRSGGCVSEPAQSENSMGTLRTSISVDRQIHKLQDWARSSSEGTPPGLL

Cavia porcellus = species on record: Cavia porcellus; assay: pA2 value against guinea pig ileum.; type: functional; details: read-out: pA2 (converted)

| Structure (SMILES) | Ki (B2 bradykinin receptor) [nM] | Kb (Cavia porcellus) [nM] |
| --- | --- | --- |
| NC(N)=NCCC[C@@H](N)C(=O)N[C@@H](CCCN=C(N)N)C(=O)N1CCC[C@H]1C(=O)N1CCC[C@H]1C(=O)NCC(=O)N[C@@H](Cc1ccccc1)C(=O)N[C@@H](CO)C(=O)N[C@H](Cc1ccccc1)C(=O)N1C2CCCCC2C[C@H]1C(=O)N[C@@H](CCCN=C(N)N)C(=O)O (stereo partly specified) | 0.75 | 5.01 |
| CCCO[C@H]1C[C@H](C(=O)N2[C@H](C(=O)N[C@@H](CCCNC(=N)N)C(=O)O)C[C@@H]3CCCC[C@@H]32)N(C(=O)[C@H](CO)NC(=O)[C@H](Cc2cccs2)NC(=O)CNC(=O)[C@@H]2C[C@@H](O)CN2C(=O)[C@@H]2CCCN2C(=O)[C@H](CCCNC(=N)N)NC(=O)[C@H](N)CCCNC(=N)N)C1 | 0.16 | 3.16 |
| NC(N)=NCCC[C@@H](N)C(=O)N[C@@H](CCCN=C(N)N)C(=O)N1CCC[C@H]1C(=O)N1C[C@H](O)C[C@H]1C(=O)NCC(=O)N[C@@H](Cc1cccs1)C(=O)N[C@@H](CO)C(=O)N1Cc2ccccc2C[C@@H]1C(=O)N1[C@H](C(=O)N[C@@H](CCCN=C(N)N)C(=O)O)C[C@@H]2CCCC[C@@H]21 [ICATIBANT] | 0.11 | 2 |
